Assay results from ChEMBL document CHEMBL2331397, “Indoleamine 2,3-dioxygenase inhibitory activity of derivatives of marine alkaloid tsitsikammamine A” (Bioorg Med Chem Lett, 2013).
Active and inactive are the calls of the source. The rule behind the calls is not given here.

Columns and labels:
[1] = Cytotoxicity against mouse P815B cells assessed as cell viability at 10 uM by MTT assay relative to control; format: cell-based; conditions: read-out: Activity
[2] = biological target: Indoleamine 2,3-dioxygenase 1 (Mus musculus) (UniProt P28776); test: Inhibition of mouse IDO1 overexpressed in mouse P815B cells using L-Trp as substrate assessed as kynurenine level at 10 uM by HPLC analysis relative to control; format: cell-based
[3] = biological target: Tryptophan 2,3-dioxygenase (Mus musculus) (UniProt P48776); test: Inhibition of mouse TDO overexpressed in mouse P815B cells using L-Trp as substrate assessed as kynurenine level at 10 uM by HPLC analysis relative to control; format: cell-based
[4] = biological target: T1, Indoleamine 2,3-dioxygenase 1 (Homo sapiens, UniProt P14902); test: Inhibition of human recombinant IDO1 using L-Trp as substrate assessed as kynurenine level after 30 mins
[5] = biological target: T1, Indoleamine 2,3-dioxygenase 1; test: Uncompetitive inhibition of hexahistidyl-tagged human IDO1
Target sequence in this assay (P14902 whole entry): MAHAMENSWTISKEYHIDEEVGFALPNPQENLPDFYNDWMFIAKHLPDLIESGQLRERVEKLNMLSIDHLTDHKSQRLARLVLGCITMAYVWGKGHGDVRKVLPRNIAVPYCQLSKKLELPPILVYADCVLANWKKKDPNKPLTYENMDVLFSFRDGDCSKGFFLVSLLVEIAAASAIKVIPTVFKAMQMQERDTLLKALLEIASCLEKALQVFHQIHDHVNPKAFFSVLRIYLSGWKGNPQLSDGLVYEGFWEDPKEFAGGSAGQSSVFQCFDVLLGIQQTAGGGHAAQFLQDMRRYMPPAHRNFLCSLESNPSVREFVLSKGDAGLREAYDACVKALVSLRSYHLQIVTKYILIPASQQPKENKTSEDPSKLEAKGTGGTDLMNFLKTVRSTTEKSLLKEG

[6] = biological target: Tryptophan 2,3-dioxygenase (Mus musculus) (UniProt P48776); conditions: P815B, 22 uM
Description: Inhibition of mouse TDO overexpressed in mouse P815B cells using L-Trp as substrate assessed as kynurenine level at 22 uM by HPLC analysis relative to control

[7] = biological target: Indoleamine 2,3-dioxygenase 1 (Mus musculus) (UniProt P28776); test: Inhibition of mouse IDO1 overexpressed in mouse P815B cells using L-Trp as substrate assessed as kynurenine level at 22 uM by HPLC analysis relative to control; format: cell-based

Sequence of Tryptophan 2,3-dioxygenase (Mus musculus) (P48776 whole entry): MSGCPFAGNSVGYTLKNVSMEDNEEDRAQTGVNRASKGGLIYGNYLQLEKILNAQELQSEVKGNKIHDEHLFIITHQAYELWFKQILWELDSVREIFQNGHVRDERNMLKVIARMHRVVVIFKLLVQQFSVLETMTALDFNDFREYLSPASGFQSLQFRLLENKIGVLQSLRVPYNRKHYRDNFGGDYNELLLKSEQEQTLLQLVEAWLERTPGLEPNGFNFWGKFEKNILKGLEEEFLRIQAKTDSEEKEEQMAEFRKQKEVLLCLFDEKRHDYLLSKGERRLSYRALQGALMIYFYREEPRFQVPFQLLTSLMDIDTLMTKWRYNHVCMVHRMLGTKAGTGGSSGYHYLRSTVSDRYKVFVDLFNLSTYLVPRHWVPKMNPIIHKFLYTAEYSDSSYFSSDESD
Sequence of Indoleamine 2,3-dioxygenase 1 (Mus musculus) (P28776 whole entry, looked up): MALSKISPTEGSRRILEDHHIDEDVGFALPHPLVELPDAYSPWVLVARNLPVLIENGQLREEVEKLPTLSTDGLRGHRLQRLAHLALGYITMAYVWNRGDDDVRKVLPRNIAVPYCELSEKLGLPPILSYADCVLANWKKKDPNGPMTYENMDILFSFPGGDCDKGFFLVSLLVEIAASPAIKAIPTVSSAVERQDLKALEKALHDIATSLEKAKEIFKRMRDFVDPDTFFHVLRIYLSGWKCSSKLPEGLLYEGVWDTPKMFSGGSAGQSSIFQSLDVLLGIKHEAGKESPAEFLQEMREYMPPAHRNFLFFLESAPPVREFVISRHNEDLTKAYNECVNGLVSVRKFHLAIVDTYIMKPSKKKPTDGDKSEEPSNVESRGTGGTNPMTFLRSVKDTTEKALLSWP

Structure (SMILES) | inhibition [2] | inhibition [3] | IC50 [4] | Ki [5] | inhibition [4] | inhibition [6] | inhibition [7] | viability at 10 µM [1]
CO[C@@]12[C@H](COC(N)=O)C3=C(C(=O)C(C)=C(N)C3=O)N1C[C@@H]1N[C@@H]12 [MITOMYCIN] | – | – | – | 25 µM | – | – | – | –
COc1ccc(C(O)CNC2=CC(=O)c3c(CCNC(=O)OC(C)(C)C)cn(S(=O)(=O)c4ccc(C)cc4)c3C2=O)cc1 (configuration not stated) | 31.3% | inactive | 26.9 µM | – | – | – | – | > 90%
O=C1c2[nH]cc3c2C(=NCC3)c2[nH]cc(-c3ccc(O)cc3)c21 | 5.3% | inactive | 7 µM | – | – | – | – | > 90%
COc1ccc(-c2c[nH]c3c2C(=O)c2cc[nH]c2C3=O)cc1 | – | – | 12.6 µM | – | – | – | – | < 50%
COc1ccc(C2CNC3=C2C(=O)c2c(ccn2S(=O)(=O)c2ccc(C)cc2)C3=O)cc1 (configuration not stated) | 54.2% | 3.2% | 5.6 µM | – | – | – | – | > 90%
COc1ccc(-c2c[nH]c3c2C(=O)c2[nH]ccc2C3=O)cc1 | – | – | 22.4 µM | – | – | – | – | < 50%
COc1ccc(C(O)CNC2=CC(=O)c3c(ccn3S(=O)(=O)c3ccc(C)cc3)C2=O)cc1 (configuration not stated) | 37.3% | 1.1% | 8.8 µM | – | – | – | – | > 90%
COc1ccc(C2CNC3=C2C(=O)c2c(c(CCN)cn2S(=O)(=O)c2ccc(C)cc2)C3=O)cc1 (configuration not stated) | 40.2% | 4.7% | 5.6 µM | – | – | – | – | > 90%
COc1ccc(C(O)CNC2=CC(=O)c3c(c(CCNC(=O)OC(C)(C)C)cn3S(=O)(=O)c3ccc(C)cc3)C2=O)cc1 (configuration not stated) | 17.4% | inactive | 10.1 µM | – | – | – | – | > 90%
O=C1c2[nH]ccc2C(=O)c2c(-c3ccc(O)cc3)c[nH]c21 | inactive | inactive | – | – | < 50% | – | – | > 90%
COc1ccc(-c2c[nH]c3c2C(=O)c2[nH]cc4c2C3=NCC4)cc1 | – | – | 7.1 µM | – | – | – | – | < 50%
Cn1cc(C[C@H](N)C(=O)O)c2ccccc21 [(L)-1-METHYLTRYPTOPHAN] | – | – | – | – | – | inactive | 14.5% | > 90%
COc1ccc(-c2c[nH]c3c2C(=O)c2c(c(CCN)cn2S(=O)(=O)c2ccc(C)cc2)C3=O)cc1 | 26% | inactive | 11.9 µM | – | – | – | – | > 90%
COc1ccc(-c2c[nH]c3c2C(=O)c2ccn(S(=O)(=O)c4ccc(C)cc4)c2C3=O)cc1 | 19.6% | inactive | – | – | < 50% | – | – | > 90%

Continued, in another order:

inhibition [2] | inhibition [3] | IC50 [4] | Ki [5] | inhibition [4] | inhibition [6] | inhibition [7] | Structure (SMILES) | viability at 10 µM [1]
24.3% | inactive | 2.5 µM | – | – | – | – | COc1ccc(C(O)CNC2=CC(=O)c3ccn(S(=O)(=O)c4ccc(C)cc4)c3C2=O)cc1 (configuration not stated) | > 90%
26.1% | inactive | 2.8 µM | – | – | – | – | COc1ccc(C2CNC3=C2C(=O)c2c(CCN)cn(S(=O)(=O)c4ccc(C)cc4)c2C3=O)cc1 (configuration not stated) | 83%
32% | 3.1% | 2.2 µM | – | – | – | – | COc1ccc(-c2c[nH]c3c2C2=NCCc4cn(S(=O)(=O)c5ccc(C)cc5)c(c42)C3=O)cc1 | > 90%
– | – | 4.2 µM | – | – | – | – | COc1ccc(-c2c[nH]c3c2C(=O)c2c4c(cn2S(=O)(=O)c2ccc(C)cc2)CCN=C34)cc1 | < 50%
19.4% | inactive | 0.9 µM | – | – | – | – | COc1ccc(-c2c[nH]c3c2C2=NCCc4c[nH]c(c42)C3=O)cc1 | > 90%
15.6% | inactive | 5.4 µM | – | – | – | – | COc1ccc(-c2c[nH]c3c2C(=O)c2c(CCN)cn(S(=O)(=O)c4ccc(C)cc4)c2C3=O)cc1 | 80%
40.2% | 2.5% | 1.8 µM | – | – | – | – | COc1ccc(C2CNC3=C2C(=O)c2ccn(S(=O)(=O)c4ccc(C)cc4)c2C3=O)cc1 (configuration not stated) | > 90%
